In ChEMBL document CHEMBL3507680, “University of Dundee, Gates Library screen for HepG2 cell viability”:

Assay: Human HepG2 cell viability assay in 384 well format
Type: toxicity, cell-based
Parameters: dose 125 nL, time 70.5 hour; concentration not given beside the values
Details: HepG2 cells, read-out: Inhibition

Compound | cytotoxicity at 70.5 h [%]
CCC(C)NS(=O)(=O)Cc1cccc(NC(=O)c2cc[nH]c2C)c1 (centres undefined) | -5.4
Cc1cccc(CN2CCCC23CCNC3)n1 (centres undefined) | 24.8
CNc1cc(C)nc(C2CCN(CCO)CC2)n1 | -6.23
Cc1nccnc1N1Cc2cnc(CC(C)C)nc2C1 | -6.3
Cc1cnn(CC2CCCN2Cc2cc(=O)n3cccc(C)c3n2)c1 (centres undefined) | -7.45
CC(C)(C)CC1CCCN1Cc1nc(-c2ccco2)no1 (centres undefined) | 18
OCCN1CC2(CCN(c3ccccc3)C2)C1 | 0.92
Cc1ccccc1[C@@H]1CN(CCCS(=O)(=O)N(C)C)C[C@H]1C(=O)O | 7.05
Cc1ccccc1-c1noc(-c2ccc(NCC3COCCO3)nc2)n1 (centres undefined) | -3.64
COc1cccc(F)c1C(C)NC(=O)NCc1cc(C(C)C)no1 (centres undefined) | -12.9
O=C1NCCN1C1CCN(CCOc2ccccc2Cl)CC1 | 0.552
CCc1c(C(=O)N2CCC(CC(N)=O)CC2)cnn1C(C)(C)C | -3.41
CC(=O)c1cc2ncc(C(=O)NC3CC3)cc2[nH]1 | 16
CNc1nc(C2CCCN2C(C)=O)nc2c1CN(CCO)CC2 (centres undefined) | -3.16
CNc1oc(-c2cc(S(=O)(=O)N3CCCC3)c(C)o2)nc1C#N | -25
CNc1ccnc(NCC(=O)Nc2cc(C)ccc2OC)n1 | -5.67
CC(C)(O)CN1CCN(C(=O)c2cc3ccccc3c(=O)[nH]2)CC1 | -3.18
CC(C)CN1CCCC1c1ccc(C(=O)Nc2ccc3[nH]nnc3c2)s1 (centres undefined) | -0.75
CN1CCN(CC2(O)CCCN(S(=O)(=O)c3cn[nH]c3)CC2)CC1 (centres undefined) | -3.77
CCOCC(O)CN1CCN(C(=O)c2ccc(OC)cc2)CC1 (centres undefined) | -9.9
CNC(=O)N1CCCCC1c1nnc2n1CCCC2 (centres undefined) | -0.585
COc1ccccc1OC1CCN(Cc2cccnc2)CC1 | -3.86
Cc1ccc(-c2c[nH]c([C@@H]3COCCN3Cc3cccnc3)n2)cc1 | 14.4

Compound | cytotoxicity at 70.5 h [%]
O=C(Cn1nnc(-c2cc3ccccc3o2)n1)N1CCOCC1 | -18.1
CN(C)c1ncc2c(n1)CCCC2NC(=O)c1ccsc1 (centres undefined) | -3.74
CNC(=O)CN(C)S(=O)(=O)c1c(Br)cc2[nH]c(=O)oc2c1Cl | -3.9
COC(=O)c1cc(C(=O)N2CCCCCC2)n(-c2ccccc2)n1 | 11.6
CC(CNC(=O)CCCc1ccccn1)c1ccsc1 (centres undefined) | -12.4
CCCc1nc(C(=O)NCc2cccnc2-n2cncn2)cs1 | 7.67
c1cncc(CN2CCc3ncnc(C4CCOC4)c3CC2)c1 (centres undefined) | 22.8
CC(C)NC(=O)N1CCC2(CC1)C(=O)NCCN2Cc1ccccc1 | -7.72
c1coc(CN2CCC3(CC2)CC(N2CCCC2)CO3)c1 (centres undefined) | 33.2
Cc1cc(C)n(CC(=O)N(CC2CN(C)CCO2)c2nccs2)n1 (centres undefined) | -4.83
COc1cc(C)nc(N2CCN(C(=O)CN(C)C(C)C)CC2)n1 | 29
N#CC1(c2ccccc2)CCN(C(=O)C2CCCN(CC(N)=O)C2)CC1 (centres undefined) | 1.9
Cc1c(C(=O)NCc2ccnc(OCC(F)(F)F)c2)cnn1C | -4.98
CCOc1cccc(NC(=O)c2cnc(C)cn2)n1 | -3.9
Cc1[nH]nc2ncc(C(=O)N3CCN(CCC(C)C)CC3)cc12 | 25.8
COc1ccc(C)cc1CN1CCCC1c1noc(C2CC2)n1 (centres undefined) | -1.93
COCc1cc(CN(C)C(=O)c2c[nH]nc2-c2cccc(F)c2)n[nH]1 | 19.4
COc1ccc(N(Cc2ccco2)C(=O)C2CCCO2)cc1F (centres undefined) | -2.54
CS(=O)(=O)c1cn[nH]c1C1CCCCN1C(=O)c1cncs1 (centres undefined) | -6.78
Cc1cc(CN2C[C@@H](C)[C@@]3(CCN(C)C3=O)C2)oc1C | -5.99
Cc1nn(C)c(C)c1S(=O)(=O)N1CC[C@@H]2O[C@@H](C)C[C@H]2C1 | -11.2
COc1ncccc1CNCc1c(C)nn(C)c1N(C)C | 19.7
COC[C@@H]1CCC[C@]12CN(CCc1ccccc1)CCO2 | -12.8

Compound | cytotoxicity at 70.5 h [%]
c1ccc(O[C@H]2CO[C@@]3(CCN(Cc4ccc5c(c4)OCO5)C3)C2)nc1 | 0.478
CN(C(=O)Cn1nc(-c2ccccc2Cl)ccc1=O)C1CCS(=O)(=O)C1 (centres undefined) | -18.5
COc1cc2c(c(OC)c1OC)CCN(CCN1CCCCC1)CC2 | -10.5
CC(CNCc1ccc2c(c1)n(C)c(=O)n2C)Oc1ccccn1 (centres undefined) | -24.7
O=c1[nH]c(COc2ccccc2Cl)nc2c1CCNC2 | -4.85
Cc1cc(C(=O)N2CCC3(CCC(=O)N(CC(N)=O)C3)CC2)ccc1O | -14
O=C(CNCc1ccccc1Cn1cccn1)Nc1cnccn1 | -9.54
CCS(=O)(=O)N1CC[C@H]2OCC[C@@]2(C(=O)NC)C1 | -9.74
Cc1cccn2c(=O)cc(CN3CCCCC3Cn3cncn3)nc12 (centres undefined) | 7.36
CC[C@@H](C)[C@@H](N)C(=O)Nc1cccc(-c2cnc(N)nc2)c1 | -6
N#Cc1cc(NC(=O)c2ccccn2)ccc1N1CCC(O)CC1 | -3.91
Cc1nc(NC(=O)CNC(=O)c2c(F)cccc2Cl)n[nH]1 | -6.51
COc1ccc(C(C)NCc2c[nH]nc2C)cc1OC (centres undefined) | -8.7
COC(CNC(=O)NCc1c(C)cc(C)[nH]c1=O)c1ccccc1 (centres undefined) | -12.2
CN(C)S(=O)(=O)N1C[C@@H](OCc2cccnc2)[C@H]2OCCC[C@H]21 | 12.6
COCC(C)NC(=O)N(C)Cc1cc(C)on1 (centres undefined) | -5.5
Cc1nccc(-c2ccccc2)c1C(=O)N1CC[C@](C)(O)C(C)(C)C1 | 1.9
CN(C)c1cccc(CNCc2ccc(N3CCOCC3)cc2)c1 | 14
CCN(C(=O)NCc1cccnc1N(C)C)C(C)c1cccnc1 (centres undefined) | -8.8
CNC(=O)CCS(=O)(=O)Cc1nnnn1-c1ccccc1 | -3.85
CC(Cn1cccn1)NC(=O)Nc1nncs1 (centres undefined) | -2.31
Cc1nnc(CN2CCOC(c3ccc(Cl)cc3)C2)o1 (centres undefined) | 0.631
COc1ccc(CN2C[C@H]3CCC[C@@H](CN(C)C)[C@H]3C2)cn1 | -2.35

Compound | cytotoxicity at 70.5 h [%]
O=C(NCCO)c1cc(-c2ccc3c(c2)CCO3)n[nH]1 | 18
CC(Cc1ccco1)NC(=O)Nc1ccc(N(C)C)nc1 (centres undefined) | -7.91
Cc1ccc(CNC(=O)CCSCc2csc(C)n2)cn1 | -11.2
Cc1ccc(S(=O)(=O)NC(=O)CCc2cscn2)cc1Cl | 25.6
CCc1nnc2n1CCN(C(=O)c1cc3ccc(C)cc3[nH]1)C2 | -12.2
Cc1noc(C2CCN(Cc3cc(=O)n(C)c(=O)n3C)CC2)n1 | -13.2
O=C(c1ccc(Cl)c(Cl)c1)N1CCCC(n2cncn2)C1 (centres undefined) | -14
COCC1CCCN(C(=O)c2cc(Cn3ccc4ccccc43)[nH]n2)C1 (centres undefined) | -6.02
Cc1ccc(-c2n[nH]cc2CNCC2CCN(CC(C)O)CC2)cc1 (centres undefined) | -1.53
O=C(Cn1cc(Cl)cn1)N1CCNC1=O | 48.7
CN(Cc1cnn(C)c1)CC(O)c1ccc2c(c1)OCCCO2 (centres undefined) | 17.4
CC(NC(=O)c1cccc[n+]1[O-])C1CC1 (centres undefined) | -4.24
CN(Cc1cccnc1)[C@@H]1CN(CC2CC2)[C@@H]2CCCO[C@H]12 | -2.78
O=C(c1cnc2ccccc2c1)N1CCCC(O)(CN2CCCC2)C1 (centres undefined) | -0.693
CC(=O)N1C[C@H](NC(=O)c2ccnc(N)c2)[C@@H](C(C)C)C1 | 3.14
CCS(=O)(=O)N1CC[C@H]2CO[C@H](CN(C)C)[C@H]2C1 | 9.44
O=C(Cc1csc(-c2ccccc2F)n1)NCc1ccc(C(=O)O)cc1 | -10.6
COCC(=O)N1CCc2nc(C(=O)Nc3cccnc3)sc2CC1 | -2.18
Brc1ccc(-c2nnc(CN(Cc3cccs3)CC3CCCO3)o2)s1 (centres undefined) | -14.5
CCOC(=O)[C@]12CCCN(Cc3ccco3)C[C@H]1CN(CCN(C)C)C2 | -8.65
CCCN(C(=O)c1csnn1)C1CCCN(Cc2ccccc2)C1 (centres undefined) | -5.57
Cc1nc(O)ccc1C(=O)NCc1ncoc1C | -2.74
Cn1nccc1C1CCN(Cc2cnn(-c3ccccc3)n2)CC1 | 20.8

Compound | cytotoxicity at 70.5 h [%]
COc1c(C(=O)NCC(C)Sc2ccccc2)c(C)nn1C (centres undefined) | -5.69
O=C(NCc1ccc(Cl)cc1Cl)NCC1(O)CCSC1 (centres undefined) | 18.5
Cc1cc(C)n(CCCNC(=O)NCc2c(C)cc(C)[nH]c2=O)n1 | 2.42
CNc1cc(-c2ccc(COCCN)cc2)c2cc[nH]c2n1 | -13.6
CCOC1COC2(CCN(C(=O)c3cccc(C)n3)CC2)C1 (centres undefined) | -0.53
N#Cc1cccc(S(=O)(=O)NC(=O)COC2CCCC2)c1 | 11.3
CNc1nc(C(=O)NCc2cccnc2N(C)C2CCCCC2)cs1 | 12.4
CCCOC1Sc2nnc(C)n2N=C1c1ccccc1 (centres undefined) | -9.6
COc1ccccc1OCCC(=O)N1CCCC1Cn1cccn1 (centres undefined) | 2.97
Cc1nc(C)c(C(=O)NCC(c2ccccc2Cl)N2CCOCC2)s1 (centres undefined) | 19.6
CCn1ccnc1CN1CCN(CCOc2ccc(C#N)cc2)CC1 | -4.7
Cc1cccnc1NC(=O)NCc1ccc(N2CCNC(=O)C2)cc1 | -10.1
O=S(=O)(c1cccs1)N1CC[C@H]2[C@H]1CCN2CC1CC1 | -9.72
O=C(Nc1cccnc1)c1noc2c1CN(S(=O)(=O)C1CC1)CC2 | -12.1
CC1(C(=O)NCc2cc(F)cc(F)c2)CCOCC1 | -6.71
Cc1nc(N(C)Cc2cccc(O)c2)nc2cc(S(C)(=O)=O)ccc12 | -7.8
CCOCC(=O)N1C[C@H]2CCC[C@@]2(COC)C1 | -7.78
CC(C)n1c2ccccc2c2c1cc(C(=O)N(C)C)n2C | 16.4
Cc1ccc(S(=O)(=O)NC(=O)C2(c3ccc(F)cc3)CCC2)c(C)c1 | 26.9
O=C(NCc1ccc(F)cc1)NCC(O)(c1ccco1)C1CC1 (centres undefined) | 6.32
COc1ccc(C2CCCN2c2ccnc(C)c2Cl)c(OC)c1 (centres undefined) | 33.7
Cn1cc(CNC(=O)C2CCCN(Cc3cccc(F)c3)C2)cn1 (centres undefined) | -11.1
